These results are taken from patent US5153227A, “Phenylsulfonyl nitromethanes as aldose reductase inhibitors” (Imperial Chemical Industries PLC, priority 1987, dated 1992).

This experiment addresses T1, aldose reductase (Bos taurus, UniProt P16116).
T1 construct: partially purified aldose reductase is isolated in known manner from bovine lenses; from tissue; host or cells: bovine lenses
Description: in vitro inhibition of partially purified aldose reductase isolated from bovine lenses (reduction of glucose to sorbitol, spectrophotometric). The format is biochemical. Conditions: in vitro test, bovine lens aldose reductase. Here is the method: Thus, partially purified aldose reductase is isolated in known manner from bovine lenses. The percentage inhibition of this enzyme's ability in vitro to catalyse the reduction of aldoses to polyhydric alcohols, and particularly to reduce glucose to sorbitol, caused by a test compound is then determined using standard spectrophotometric methods.

As for `O=[N+]([O-])CS(=O)(=O)c1cccc2ccccc12` [Example 1, (1-naphthylsulphonyl)nitromethane], it took 320 nM to reach half-maximal inhibition (IC50).
